Measured values: ChEMBL document CHEMBL1150698, “Placidenes C-F, novel alpha-pyrone propionates from the Mediterranean sacoglossan Placida dendritica” (J Nat Prod, 2003)

Legend:
Gambusia affinis = assay: Toxicity in Gambusia affinis; type: organism-based; settings: in vivo
[1] = Stability at pH 1 to 5; type: physicochemical; settings: buffer

| Stability [1] | SMILES | Activity (Gambusia affinis) |
| --- | --- | --- |
| Stable | CC/C=C(C)\C=C(/C)c1oc(OC)c(C)c(=O)c1C [PLACIDENE A] | Non-toxic |
| Stable | CCC(C)/C=C/c1oc(=O)cc(OC)c1C (configuration not stated) [PLACIDENE C] | Non-toxic |
| – | CCCC(C)/C=C/c1oc(=O)cc(OC)c1C (configuration not stated) [PLACIDENE D] | Non-toxic |
| – | CCCC(C)c1oc(=O)cc(OC)c1C (configuration not stated) [PLACIDENE E] | Non-toxic |
| – | C/C=C(C)\C=C(/C)c1oc(=O)c(C)c(OC)c1C [PLACIDENE F] | Non-toxic |
